The NIST ThermoML archive (doi:10.1016/j.jct.2014.05.016)

Assay: xn = mol fraction of the nth substance listed
Details: 100 kPa, Liquid; for viscosity: Concentric cylinders viscometry; for mass density: Vibrating tube method

C[n+]1ccn(CCO)c1.F[B-](F)(F)F [1-(2-hydroxyethyl)-3-methylimidazolium tetrafluoroborate] + CCCC[n+]1ccccc1.F[B-](F)(F)F
Details | mass density [kg/m3] | viscosity [mPa·s]
293.15 K, x1 = 0.1003 | 1229 | 218.7
293.15 K, x1 = 0.2001 | – | 205.9
293.15 K, x1 = 0.2004 | 1242.4 | –
293.15 K, x1 = 0.2997 | – | 193.9
293.15 K, x1 = 0.3003 | 1255.9 | –
293.15 K, x1 = 0.3999 | 1269.7 | 184.2
293.15 K, x1 = 0.4996 | – | 176.1
293.15 K, x1 = 0.5007 | 1284.2 | –
293.15 K, x1 = 0.5991 | 1298.7 | 169.5
293.15 K, x1 = 0.6954 | 1313.4 | –
293.15 K, x1 = 0.6997 | – | 164.2
293.15 K, x1 = 0.7997 | 1329.9 | –
293.15 K, x1 = 0.7999 | – | 159.9
293.15 K, x1 = 0.8996 | 1346.1 | –
293.15 K, x1 = 0.8998 | – | 155.4
293.15 K, x1 = 1 | 1362.4 | 153.6
298.15 K, x1 = 0.1003 | 1225.5 | 160.4
298.15 K, x1 = 0.2001 | – | 151.5
298.15 K, x1 = 0.2004 | 1238.9 | –
298.15 K, x1 = 0.2997 | – | 143.4
298.15 K, x1 = 0.3003 | 1252.3 | –
298.15 K, x1 = 0.3999 | 1266.1 | 136.7
298.15 K, x1 = 0.4996 | – | 131.1
298.15 K, x1 = 0.5007 | 1280.6 | –
298.15 K, x1 = 0.5991 | 1295.1 | 126.4
298.15 K, x1 = 0.6954 | 1309.8 | –
298.15 K, x1 = 0.6997 | – | 122.7
298.15 K, x1 = 0.7997 | 1326.1 | –
298.15 K, x1 = 0.7999 | – | 119.5
298.15 K, x1 = 0.8996 | 1342.3 | –
298.15 K, x1 = 0.8998 | – | 116
298.15 K, x1 = 1 | 1358.7 | 115.1
303.15 K, x1 = 0.1003 | 1222 | 120.3
303.15 K, x1 = 0.2001 | – | 114.2
303.15 K, x1 = 0.2004 | 1235.4 | –
303.15 K, x1 = 0.2997 | – | 108.5
303.15 K, x1 = 0.3003 | 1248.8 | –
303.15 K, x1 = 0.3999 | 1262.5 | 104
303.15 K, x1 = 0.4996 | – | 99.88
303.15 K, x1 = 0.5007 | 1277 | –
303.15 K, x1 = 0.5991 | 1291.4 | 96.68
303.15 K, x1 = 0.6954 | 1306.1 | –
303.15 K, x1 = 0.6997 | – | 94.02
303.15 K, x1 = 0.7997 | 1322.4 | –
303.15 K, x1 = 0.7999 | – | 91.38
303.15 K, x1 = 0.8996 | 1338.6 | –
303.15 K, x1 = 0.8998 | – | 88.75
303.15 K, x1 = 1 | 1354.8 | 87.98
308.15 K, x1 = 0.1003 | 1218.7 | 92.07
308.15 K, x1 = 0.2001 | – | 87.89
308.15 K, x1 = 0.2004 | 1231.9 | –
308.15 K, x1 = 0.2997 | – | 83.89
308.15 K, x1 = 0.3003 | 1245.3 | –
308.15 K, x1 = 0.3999 | 1259 | 80.56
308.15 K, x1 = 0.4996 | – | 77.78
308.15 K, x1 = 0.5007 | 1273.4 | –
308.15 K, x1 = 0.5991 | 1287.9 | 75.21
308.15 K, x1 = 0.6954 | 1302.4 | –
308.15 K, x1 = 0.6997 | – | 73.36
308.15 K, x1 = 0.7997 | 1318.8 | –
308.15 K, x1 = 0.7999 | – | 71.46
308.15 K, x1 = 0.8996 | 1334.9 | –
308.15 K, x1 = 0.8998 | – | 69.32
308.15 K, x1 = 1 | 1351.2 | 68.59
313.15 K, x1 = 0.1003 | 1215.2 | 71.96
313.15 K, x1 = 0.2001 | – | 69.99
313.15 K, x1 = 0.2004 | 1228.4 | –
313.15 K, x1 = 0.2997 | – | 66.1
313.15 K, x1 = 0.3003 | 1241.8 | –
313.15 K, x1 = 0.3999 | 1255.5 | 63.68
313.15 K, x1 = 0.4996 | – | 61.56
313.15 K, x1 = 0.5007 | 1269.9 | –
313.15 K, x1 = 0.5991 | 1284.4 | 59.69
313.15 K, x1 = 0.6954 | 1298.8 | –
313.15 K, x1 = 0.6997 | – | 58.34
313.15 K, x1 = 0.7997 | 1315.1 | –
313.15 K, x1 = 0.7999 | – | 56.8
313.15 K, x1 = 0.8996 | 1331.2 | –
313.15 K, x1 = 0.8998 | – | 55.18
313.15 K, x1 = 1 | 1347.4 | 54.81
318.15 K, x1 = 0.1003 | 1211.8 | 57.27
318.15 K, x1 = 0.2001 | – | 55.12
318.15 K, x1 = 0.2004 | 1225 | –
318.15 K, x1 = 0.2997 | – | 52.99
318.15 K, x1 = 0.3003 | 1238.3 | –
318.15 K, x1 = 0.3999 | 1252 | 51.21
318.15 K, x1 = 0.4996 | – | 49.63
318.15 K, x1 = 0.5007 | 1266.3 | –
318.15 K, x1 = 0.5991 | 1280.7 | 48.25
318.15 K, x1 = 0.6954 | 1295.2 | –
318.15 K, x1 = 0.6997 | – | 47.11
318.15 K, x1 = 0.7997 | 1311.4 | –
318.15 K, x1 = 0.7999 | – | 45.99
318.15 K, x1 = 0.8996 | 1327.5 | –
318.15 K, x1 = 0.8998 | – | 44.69
318.15 K, x1 = 1 | 1343.7 | 44.44
323.15 K, x1 = 0.1003 | 1208.4 | 46.31
323.15 K, x1 = 0.2001 | – | 44.75
323.15 K, x1 = 0.2004 | 1221.5 | –
323.15 K, x1 = 0.2997 | – | 43.16
323.15 K, x1 = 0.3003 | 1234.8 | –
323.15 K, x1 = 0.3999 | 1248.5 | 41.83
323.15 K, x1 = 0.4996 | – | 40.75
323.15 K, x1 = 0.5007 | 1262.7 | –
323.15 K, x1 = 0.5991 | 1277.1 | 39.57
323.15 K, x1 = 0.6954 | 1291.8 | –
323.15 K, x1 = 0.6997 | – | 38.63
323.15 K, x1 = 0.7997 | 1307.8 | –
323.15 K, x1 = 0.7999 | – | 37.9
323.15 K, x1 = 0.8996 | 1323.8 | –
323.15 K, x1 = 0.8998 | – | 36.75
323.15 K, x1 = 1 | 1340.1 | 36.5
328.15 K, x1 = 0.1003 | 1205.1 | 38.01
328.15 K, x1 = 0.2001 | – | 36.85
328.15 K, x1 = 0.2004 | 1218.1 | –
328.15 K, x1 = 0.2997 | – | 35.7
328.15 K, x1 = 0.3003 | 1231.3 | –
328.15 K, x1 = 0.3999 | 1245 | 34.64
328.15 K, x1 = 0.4996 | – | 33.74
328.15 K, x1 = 0.5007 | 1259.2 | –
328.15 K, x1 = 0.5991 | 1273.5 | 32.9
328.15 K, x1 = 0.6954 | 1288 | –
328.15 K, x1 = 0.6997 | – | 32.19
328.15 K, x1 = 0.7997 | 1304.1 | –
328.15 K, x1 = 0.7999 | – | 31.58
328.15 K, x1 = 0.8996 | 1320.2 | –
328.15 K, x1 = 0.8998 | – | 30.65
328.15 K, x1 = 1 | 1336.4 | 30.46
333.15 K, x1 = 0.1003 | 1201.7 | 31.61
333.15 K, x1 = 0.2001 | – | 30.75
333.15 K, x1 = 0.2004 | 1214.6 | –
333.15 K, x1 = 0.2997 | – | 29.88
333.15 K, x1 = 0.3003 | 1227.9 | –
333.15 K, x1 = 0.3999 | 1241.5 | 29.05
333.15 K, x1 = 0.4996 | – | 28.35
333.15 K, x1 = 0.5007 | 1255.7 | –
333.15 K, x1 = 0.5991 | 1270 | 27.7
333.15 K, x1 = 0.6954 | 1284.4 | –
333.15 K, x1 = 0.6997 | – | 27.13
333.15 K, x1 = 0.7997 | 1300.5 | –
333.15 K, x1 = 0.7999 | – | 26.61
333.15 K, x1 = 0.8996 | 1316.6 | –
333.15 K, x1 = 0.8998 | – | 25.87
333.15 K, x1 = 1 | 1332.8 | 25.73
338.15 K, x1 = 0.1003 | 1198.3 | 26.6
338.15 K, x1 = 0.2001 | – | 25.96
338.15 K, x1 = 0.2004 | 1211.2 | –
338.15 K, x1 = 0.2997 | – | 25.28
338.15 K, x1 = 0.3003 | 1224.4 | –
338.15 K, x1 = 0.3999 | 1238 | 24.64
338.15 K, x1 = 0.4996 | – | 24.09
338.15 K, x1 = 0.5007 | 1252.2 | –
338.15 K, x1 = 0.5991 | 1266.5 | 23.58
338.15 K, x1 = 0.6954 | 1280.9 | –
338.15 K, x1 = 0.6997 | – | 23.11
338.15 K, x1 = 0.7997 | 1297 | –
338.15 K, x1 = 0.7999 | – | 22.69
338.15 K, x1 = 0.8996 | 1312.9 | –
338.15 K, x1 = 0.8998 | – | 22.08
338.15 K, x1 = 1 | 1329.2 | 21.98
343.15 K, x1 = 0.1003 | 1194.9 | 22.64
343.15 K, x1 = 0.2001 | – | 22.15
343.15 K, x1 = 0.2004 | 1207.8 | –
343.15 K, x1 = 0.2997 | – | 21.6
343.15 K, x1 = 0.3003 | 1221 | –
343.15 K, x1 = 0.3999 | 1234.6 | 21.12
343.15 K, x1 = 0.4996 | – | 20.68
343.15 K, x1 = 0.5007 | 1248.7 | –
343.15 K, x1 = 0.5991 | 1263 | 20.28
343.15 K, x1 = 0.6954 | 1277.3 | –
343.15 K, x1 = 0.6997 | – | 19.9
343.15 K, x1 = 0.7997 | 1293.4 | –
343.15 K, x1 = 0.7999 | – | 19.56
343.15 K, x1 = 0.8996 | 1309.3 | –
343.15 K, x1 = 0.8998 | – | 19.05
343.15 K, x1 = 1 | 1325.5 | 18.95
